Reference: paper PMC4585259 (Frontiers in Pharmacology, 2015)
Like-named read-outs stand apart in the source and are kept apart here.

Target: T1, rNav1.2 sodium channels (Rattus norvegicus, UniProt P04775)
T1 construct: host or cells: HEK-293
Experiment: QPatch automated patch clamp, inhibition of sodium currents evoked by 5 Hz trains at three extracellular pH values
Type: cell-based
Details: for class of pH-dependence pattern (cluster analysis): Ward's method on 18 variables of affinity, reversibility, onset; for τoffset / τonset: concentration (lidocaine 300 μM, memantine 30 μM)
Protocol: HEK-293 cells stably expressing rNav1.2 sodium channels were obtained from NeuroSearch (Ballerup, Denmark). The cells were grown in Dulbecco's modified Eagle medium supplemented with 10% FBS. Prior to use, the cells were trypsinized and subsequently kept in suspension in the QPatch cell storage facility in CHO-S- SFM-II medium.
Composition of the extracellular solution was: (in mM): 140 NaCl, 3 KCl, 1 CaCl2 1 MgCl2, 0.1 CdCl2, 20 TEA-Cl, 5 HEPES, adjusted to pH 7.3, Osmolality: 320 mOsm. […] Drugs were synthesized in Gedeon Richter Plc. […] The full list of drugs, with their three-letter codes, concentration, as well as their main therapeutic indication and main mechanism of action are shown in Table 1. […] The choice of concentrations used in this study may seem unusually high.
Data were sampled at a frequency of 25 kHz and filtered at 5 kHz. Junction potential was calculated to be −11 mV and was corrected for. […] Cells having membrane resistance < 500 MOhm, series resistance > 9 MOhm, or capacitance > 22 pF were excluded from analysis. The experimental protocol was also identical to the one used in our previous study: sodium channels were activated by 5 Hz trains of 5 depolarizations (−90 to −10 mV) repeated in every 20 s. In this study, however, the same control–drug-application–washout sequence was repeated four times: at neutral, acidic, alkalic, and again neutral pH. The peak amplitudes of sodium currents throughout the whole experiment are shown plotted against time in Figure 1 and Supplementary Figure 1.
Initial analysis, including subtraction of leak and capacitive artifacts, as well as peak detection were done in the QPatch software. […] All experiments were normalized to the amplitude of the current evoked by the first depolarization of the last train under control conditions. […] For all four drug applications in an experiment, apparent affinity, onset and offset time constants as well as reversibility values were calculated. […] (This method is equivalent to applying the Lineweaver-Burk plot method using a single concentration.) Reversibility values were calculated from control (c), inhibited (i), and wash-out (w) amplitudes as follows: Reversibility = (w-i)/(c-i). Reversibility values should not be regarded as experimental platform-independent properties of compounds. […] However, reversibility values are a valuable source of information regarding physicochemical differences between individual drugs, or between effects of the same drug under different extracellular pH conditions. Onset and offset time constants were determined by single exponential fitting to individual experiments. For neutral pH numerical data were given as the average of the data from the first and the last drug applications. Thin black lines on Figure 1 and Supplemental Figure 1 show the average of five fitted exponentials, (not the exponential fitted to the averaged normalized amplitudes). The numerical values of apparent affinity, onset and offset time constants and reversibility are shown in Table 2, and their relative position is illustrated in Figure 2. Affinity and time constant values were logarithmically transformed for statistics, therefore we show their geometric mean. For recovery data no transformation was done, and we show arithmetic mean values. Significance values were calculated using paired, two-tailed Student's t-test based on five pairs of apparent affinity (log transform), time constant (log transform), or reversibility values obtained from five individual experiments. Because of the large number of comparisons in this study, we accepted p < 0.01 as significant. Cluster analysis was done using Ward's minimum variance method, with Euclidean distance measure. Data were normalized by subtracting the mean (after logarithmic transformation in the case of apparent affinity and time constants), and dividing by the standard deviation.

[1] = pH 6.0, single concentration (lidocaine 300 μM, memantine 30 μM), geometric mean of 5, read-out: apparent affinity
[2] = pH 7.3, single concentration (lidocaine 300 μM, memantine 30 μM), geometric mean of 5, read-out: apparent affinity
[3] = pH 8.6, single concentration (lidocaine 300 μM, memantine 30 μM), geometric mean of 5, read-out: apparent affinity
[4] = pH=6.0, cc 100 mM, read-out: Apparent Affinity
[5] = pH=7.3, cc 100 mM, read-out: Apparent Affinity
[6] = pH=8.6, cc 100 mM, read-out: Apparent Affinity
[7] = pH=6.0, cc 30 mM, read-out: Apparent Affinity
[8] = pH=7.3, cc 30 mM, read-out: Apparent Affinity
[9] = pH=8.6, cc 30 mM, read-out: Apparent Affinity
[10] = pH=6.0, cc 300 mM, read-out: Apparent Affinity
[11] = pH=7.3, cc 300 mM, read-out: Apparent Affinity
[12] = pH=8.6, cc 300 mM, read-out: Apparent Affinity

T1 sequence (P04775 whole entry): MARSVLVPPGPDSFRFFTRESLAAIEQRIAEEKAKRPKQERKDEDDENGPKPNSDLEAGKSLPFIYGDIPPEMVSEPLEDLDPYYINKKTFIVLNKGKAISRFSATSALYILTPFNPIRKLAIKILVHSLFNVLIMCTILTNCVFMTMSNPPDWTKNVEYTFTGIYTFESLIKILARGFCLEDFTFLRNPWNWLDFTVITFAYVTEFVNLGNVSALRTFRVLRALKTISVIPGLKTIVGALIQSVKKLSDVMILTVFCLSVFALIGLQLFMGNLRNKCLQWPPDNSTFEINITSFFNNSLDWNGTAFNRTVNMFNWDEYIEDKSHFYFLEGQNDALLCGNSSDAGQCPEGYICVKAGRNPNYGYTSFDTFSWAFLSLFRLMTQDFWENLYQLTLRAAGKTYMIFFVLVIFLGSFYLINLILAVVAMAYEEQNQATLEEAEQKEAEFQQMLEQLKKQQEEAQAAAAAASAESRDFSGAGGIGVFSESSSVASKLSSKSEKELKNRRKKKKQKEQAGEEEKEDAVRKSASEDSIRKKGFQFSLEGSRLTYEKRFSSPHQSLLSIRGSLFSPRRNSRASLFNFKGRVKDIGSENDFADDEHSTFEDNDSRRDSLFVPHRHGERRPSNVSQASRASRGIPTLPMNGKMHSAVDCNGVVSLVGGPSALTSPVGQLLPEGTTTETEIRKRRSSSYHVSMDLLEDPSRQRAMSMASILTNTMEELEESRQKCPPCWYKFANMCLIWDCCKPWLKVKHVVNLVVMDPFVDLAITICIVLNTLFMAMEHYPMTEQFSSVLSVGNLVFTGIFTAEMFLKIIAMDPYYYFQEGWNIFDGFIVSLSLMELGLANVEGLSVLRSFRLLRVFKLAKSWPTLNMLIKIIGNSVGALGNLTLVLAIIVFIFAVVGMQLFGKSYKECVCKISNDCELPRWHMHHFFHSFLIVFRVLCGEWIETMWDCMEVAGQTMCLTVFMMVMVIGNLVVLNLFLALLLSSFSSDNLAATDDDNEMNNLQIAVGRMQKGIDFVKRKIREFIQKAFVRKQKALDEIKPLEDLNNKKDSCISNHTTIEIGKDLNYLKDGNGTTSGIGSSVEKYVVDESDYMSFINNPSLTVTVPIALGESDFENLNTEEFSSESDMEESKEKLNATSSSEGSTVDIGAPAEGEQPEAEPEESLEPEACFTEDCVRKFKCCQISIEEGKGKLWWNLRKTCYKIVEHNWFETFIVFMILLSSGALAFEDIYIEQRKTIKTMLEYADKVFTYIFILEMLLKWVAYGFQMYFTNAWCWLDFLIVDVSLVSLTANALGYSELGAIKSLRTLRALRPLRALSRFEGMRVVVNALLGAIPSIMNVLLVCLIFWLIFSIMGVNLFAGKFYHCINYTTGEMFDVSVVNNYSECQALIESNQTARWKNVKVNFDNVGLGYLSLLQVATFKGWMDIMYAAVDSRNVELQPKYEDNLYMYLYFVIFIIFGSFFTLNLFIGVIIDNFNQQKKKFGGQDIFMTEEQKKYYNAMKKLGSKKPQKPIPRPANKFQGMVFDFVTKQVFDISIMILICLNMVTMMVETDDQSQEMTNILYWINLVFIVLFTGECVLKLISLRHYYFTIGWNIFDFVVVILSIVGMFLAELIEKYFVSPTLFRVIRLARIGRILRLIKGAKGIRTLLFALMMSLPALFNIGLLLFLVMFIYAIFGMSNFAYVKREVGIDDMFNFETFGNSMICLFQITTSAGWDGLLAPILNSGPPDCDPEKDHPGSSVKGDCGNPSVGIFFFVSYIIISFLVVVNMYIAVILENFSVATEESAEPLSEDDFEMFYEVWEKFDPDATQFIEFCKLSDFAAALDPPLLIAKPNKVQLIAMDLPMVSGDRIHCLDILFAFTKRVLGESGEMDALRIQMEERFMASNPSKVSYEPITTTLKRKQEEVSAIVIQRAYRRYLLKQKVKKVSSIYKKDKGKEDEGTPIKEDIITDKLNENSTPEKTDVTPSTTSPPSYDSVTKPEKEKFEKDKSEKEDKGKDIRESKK

## Nc1c(Br)cc(Br)cc1CN[C@H]1CC[C@H](O)CC1 [ambroxol]
  class of pH-dependence pattern (cluster analysis): Class G
pH 6.0/7.3, cc 100 mM
  Ratio Reversibility: 0.839
  Ratio Tau Offset: 0.759
  Ratio Tau Onset: 0.884
  log Ratio App Aff: 0.190
pH 6.0/8.6, cc 100 mM
  Ratio Reversibility: 1.137
  Ratio Tau Offset: 0.708
  Ratio Tau Onset: 0.667
  log Ratio App Aff: 0.494
pH 6.0
  τoffset: 8.50 s
  τonset: 7.60 s
[1]
  Kd: 138 µM
pH 7.3/8.6, cc 100 mM
  Ratio Reversibility: 1.355
  Ratio Tau Offset: 0.933
  Ratio Tau Onset: 0.754
  log Ratio App Aff: 0.303
pH 7.3
  τoffset: 11.20 s
  τonset: 8.60 s
[2]
  Kd: 88.7 µM
pH 8.6
  τoffset: 12.00 s
  τonset: 11.40 s
[3]
  Kd: 44.2 µM
pH=6.0, cc 100 mM
  Reversibility: 0.65
[4]
  Kd: 138 µM
pH=7.3, cc 100 mM
  Reversibility: 0.78
[5]
  Kd: 88.7 µM
pH=8.6, cc 100 mM
  Reversibility: 0.58
[6]
  Kd: 44.2 µM

## CN(C)CCC=C1c2ccccc2CCc2ccccc21 [amitriptyline]
  class of pH-dependence pattern (cluster analysis): Class C
pH 6.0/7.3, cc 30 mM
  Ratio Reversibility: 1.364
  Ratio Tau Offset: 1.193
  Ratio Tau Onset: 1.086
  log Ratio App Aff: 0.202
pH 6.0/8.6, cc 30 mM
  Ratio Reversibility: 5.190
  Ratio Tau Offset: 0.838
  Ratio Tau Onset: 1.116
  log Ratio App Aff: 0.469
pH 6.0
  τoffset: 23.45 s
  τonset: 16.40 s
[1]
  Kd: 40.7 µM
pH 7.3/8.6, cc 30 mM
  Ratio Reversibility: 3.806
  Ratio Tau Offset: 0.702
  Ratio Tau Onset: 1.027
  log Ratio App Aff: 0.267
pH 7.3
  τoffset: 19.66 s
  τonset: 15.10 s
[2]
  Kd: 25.6 µM
pH 8.6
  τoffset: 28.00 s
  τonset: 14.70 s
[3]
  Kd: 13.8 µM
pH=6.0, cc 30 mM
  Reversibility: 0.74
[7]
  Kd: 40.7 µM
pH=7.3, cc 30 mM
  Reversibility: 0.55
[8]
  Kd: 25.6 µM
pH=8.6, cc 30 mM
  Reversibility: 0.14
[9]
  Kd: 13.8 µM

## CCCCN1CCCCC1C(=O)Nc1c(C)cccc1C (stereo not drawn) [bupivacaine]
  class of pH-dependence pattern (cluster analysis): Class B
In words
  effect of alkalic pH on onset/offset kinetics: significant acceleration of both onset and offset
pH 6.0/7.3, cc 100 mM
  Ratio Reversibility: 0.906
  Ratio Tau Offset: 2.692
  Ratio Tau Onset: 4.180
  log Ratio App Aff: 0.218
pH 6.0/8.6, cc 100 mM
  Ratio Reversibility: 1.346
  Ratio Tau Offset: 4.516
  Ratio Tau Onset: 4.322
  log Ratio App Aff: 0.412
pH 6.0
  τoffset: 56.00 s
  τonset: 51.00 s
[1]
  Kd: 106 µM
pH 7.3/8.6, cc 100 mM
  Ratio Reversibility: 1.485
  Ratio Tau Offset: 1.677
  Ratio Tau Onset: 1.034
  log Ratio App Aff: 0.194
pH 7.3
  τoffset: 20.80 s
  τonset: 12.20 s
[2]
  Kd: 64.2 µM
pH 8.6
  τoffset: 12.40 s
  τonset: 11.80 s
[3]
  Kd: 41 µM
pH=6.0, cc 100 mM
  Reversibility: 0.64
[4]
  Kd: 106 µM
pH=7.3, cc 100 mM
  Reversibility: 0.71
[5]
  Kd: 64.2 µM
pH=8.6, cc 100 mM
  Reversibility: 0.48
[6]
  Kd: 41 µM

## NC(=O)N1c2ccccc2C=Cc2ccccc21 [carbamazepine]
  class of pH-dependence pattern (cluster analysis): Class A
pH 6.0/7.3, cc 300 mM
  Ratio Reversibility: 0.728
  Ratio Tau Offset: 1.229
  Ratio Tau Onset: 0.800
  log Ratio App Aff: -0.028
pH 6.0/8.6, cc 300 mM
  Ratio Reversibility: 0.955
  Ratio Tau Offset: 1.490
  Ratio Tau Onset: 0.800
  log Ratio App Aff: 0.00109
pH 6.0
  τoffset: 12.30 s
  τonset: 4.00 s
[1]
  Kd: 545 µM
pH 7.3/8.6, cc 300 mM
  Ratio Reversibility: 1.312
  Ratio Tau Offset: 1.212
  Ratio Tau Onset: 1.000
  log Ratio App Aff: 0.029
pH 7.3
  τoffset: 10.01 s
  τonset: 5.00 s
[2]
  Kd: 581 µM
pH 8.6
  τoffset: 8.25 s
  τonset: 5.00 s
[3]
  Kd: 543 µM
pH=6.0, cc 300 mM
  Reversibility: 0.67
[10]
  Kd: 545 µM
pH=7.3, cc 300 mM
  Reversibility: 0.92
[11]
  Kd: 581 µM
pH=8.6, cc 300 mM
  Reversibility: 0.70
[12]
  Kd: 543 µM

## CN(C)CCCN1c2ccccc2Sc2ccc(Cl)cc21 [chlorpromazine]
  class of pH-dependence pattern (cluster analysis): Class G
neutral-to-alkalic solution exchange, in words
  alkalization-induced recovery: prominent alkalization-induced recovery
pH 6.0, 7.3 and 8.6
  reversibility at all three pH values: below 0.6
pH 6.0/7.3, cc 30 mM
  Ratio Reversibility: 1.906
  Ratio Tau Offset: 0.831
  Ratio Tau Onset: 0.874
  log Ratio App Aff: 0.077
pH 6.0/8.6, cc 30 mM
  Ratio Reversibility: 1.432
  Ratio Tau Offset: 0.715
  Ratio Tau Onset: 0.660
  log Ratio App Aff: 0.339
pH 6.0
  τoffset: 23.60 s
  τonset: 19.40 s
[1]
  Kd: 37.5 µM
pH 7.3/8.6, cc 30 mM
  Ratio Reversibility: 0.751
  Ratio Tau Offset: 0.861
  Ratio Tau Onset: 0.755
  log Ratio App Aff: 0.261
pH 7.3
  τoffset: 28.40 s
  τonset: 22.20 s
[2]
  Kd: 31.4 µM
pH 8.6
  τoffset: 33.00 s
  τonset: 29.40 s
[3]
  Kd: 17.2 µM
pH=6.0, cc 30 mM
  Reversibility: 0.53
[7]
  Kd: 37.5 µM
pH=7.3, cc 30 mM
  Reversibility: 0.28
[8]
  Kd: 31.4 µM
pH=8.6, cc 30 mM
  Reversibility: 0.37
[9]
  Kd: 17.2 µM

## CNCCCN1c2ccccc2CCc2ccccc21 [desipramine]
  class of pH-dependence pattern (cluster analysis): Class C
In words
  effect of alkalic pH on onset/offset kinetics: acceleration of onset
pH 6.0
  τoffset: 56.80 s
  τonset: 65.77 s
pH 7.3
  τoffset: 57.40 s
  τonset: 44.40 s
pH 8.6
  τoffset: 59.00 s
  τonset: 26.92 s
pH=6.0, cc 30 mM
  Reversibility: 0.64
pH=7.3, cc 30 mM
  Reversibility: 0.42
pH=8.6, cc 30 mM
  Reversibility: 0.11

## O=C(NCC1CCCCN1)c1cc(OCC(F)(F)F)ccc1OCC(F)(F)F (stereo not drawn) [flecainide]
  class of pH-dependence pattern (cluster analysis): Class B
In words
  effect of alkalic pH on onset/offset kinetics: significant acceleration of both onset and offset
pH 6.0/7.3, cc 300 mM
  Ratio Reversibility: 1.142
  Ratio Tau Offset: 1.344
  Ratio Tau Onset: 2.358
  log Ratio App Aff: 0.419
pH 6.0/8.6, cc 300 mM
  Ratio Reversibility: 2.794
  Ratio Tau Offset: 3.109
  Ratio Tau Onset: 7.632
  log Ratio App Aff: 0.583
pH 6.0
  τoffset: 91.40 s
  τonset: 58.00 s
[1]
  Kd: 68.1 µM
pH 7.3/8.6, cc 300 mM
  Ratio Reversibility: 2.446
  Ratio Tau Offset: 2.313
  Ratio Tau Onset: 3.237
  log Ratio App Aff: 0.164
pH 7.3
  τoffset: 68.00 s
  τonset: 24.60 s
[2]
  Kd: 25.9 µM
pH 8.6
  τoffset: 29.40 s
  τonset: 7.60 s
[3]
  Kd: 17.8 µM
pH=6.0, cc 300 mM
  Reversibility: 0.64
[10]
  Kd: 68.1 µM
pH=7.3, cc 300 mM
  Reversibility: 0.56
[11]
  Kd: 25.9 µM
pH=8.6, cc 300 mM
  Reversibility: 0.23
[12]
  Kd: 17.8 µM
